Experiments:
Dga1pΔ85 [1] = biological target: T1, Dga1pΔ85 (Yarrowia lipolytica, UniProt Q6C3R2); assay: fluorescent DGAT assay, HPTLC of NBD-TG; type: biochemical
T1 construct: gene YALI0_E32769g; lacks 85 N-terminal residues (incl. putative TM domain) of the 515-residue protein; N-terminal MBP fusion kept, ~90 kDa, pMalc2X, E. coli BL21 (DE3) pLysS; dimer on SEC

Dga1pΔ19 [2] = biological target: T2, Dga1pΔ19 (Yarrowia lipolytica, UniProt Q6C3R2); assay: fluorescent DGAT assay, HPTLC of NBD-TG; type: biochemical; conditions: acyl donor; 100 μM NBD-DG, 20 mM MgCl2, Hepes pH 7.6, 0.01% tween 20, 31°C
T2 construct: gene YALI0_E32769g; lacks 19 N-terminal residues of the printed 515-residue protein; N-terminal MBP fusion kept, ~99 kDa, pMalc2X, E. coli BL21 (DE3) pLysS; dimer on SEC
T2 sequence (Q6C3R2 entry or part of it, stated change not applied): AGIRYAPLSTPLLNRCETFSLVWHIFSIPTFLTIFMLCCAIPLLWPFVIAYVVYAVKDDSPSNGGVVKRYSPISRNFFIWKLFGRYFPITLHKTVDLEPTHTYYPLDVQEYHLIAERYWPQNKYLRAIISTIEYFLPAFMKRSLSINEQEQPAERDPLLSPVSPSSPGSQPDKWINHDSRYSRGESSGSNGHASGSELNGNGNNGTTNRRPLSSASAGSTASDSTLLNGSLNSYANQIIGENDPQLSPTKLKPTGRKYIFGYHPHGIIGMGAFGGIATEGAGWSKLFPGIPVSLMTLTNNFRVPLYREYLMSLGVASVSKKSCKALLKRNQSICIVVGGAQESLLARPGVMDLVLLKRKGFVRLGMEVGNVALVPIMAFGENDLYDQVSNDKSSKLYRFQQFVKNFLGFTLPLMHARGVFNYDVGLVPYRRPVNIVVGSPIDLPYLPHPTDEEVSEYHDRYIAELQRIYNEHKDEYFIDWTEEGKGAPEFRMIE

Dga1pΔ19 [3] = biological target: T2, Dga1pΔ19; assay: fluorescent DGAT assay, HPTLC of NBD-TG; type: biochemical; conditions: 1 mM niacin; 100 μM C18:0-CoA, 100 μM NBD-DG, 20 mM MgCl2, Hepes pH 7.6, 31°C; noncompetitive (per cited literature)
Dga1pΔ85 [4] = biological target: T1, Dga1pΔ85; assay: fluorescent DGAT assay, HPTLC of NBD-TG; type: biochemical; conditions: 1 mM niacin; 100 μM C18:0-CoA, 100 μM NBD-DG, 20 mM MgCl2, Hepes pH 7.6, 31°C; noncompetitive (per cited literature)
[5] = biological target: MBP-Dga1pΔ19 fusion protein (Yarrowia lipolytica); assay: SEC; Hiload 16/60 Superdex 200 column, 4°C; amylose-purified fractions incubated overnight with lysis buffer (50 mM Tris-HCl pH 7.5, 150 mM NaCl, 5% glycerol, 1 mM EDTA, 1 mM TCEP) with 0.5% N-lauroyl sarcosine before the column; major peak taken as a dimer
[6] = biological target: MBP-Dga1pΔ85 construct (Yarrowia lipolytica); assay: as above

T1 sequence (Q6C3R2 entry or part of it, stated change not applied): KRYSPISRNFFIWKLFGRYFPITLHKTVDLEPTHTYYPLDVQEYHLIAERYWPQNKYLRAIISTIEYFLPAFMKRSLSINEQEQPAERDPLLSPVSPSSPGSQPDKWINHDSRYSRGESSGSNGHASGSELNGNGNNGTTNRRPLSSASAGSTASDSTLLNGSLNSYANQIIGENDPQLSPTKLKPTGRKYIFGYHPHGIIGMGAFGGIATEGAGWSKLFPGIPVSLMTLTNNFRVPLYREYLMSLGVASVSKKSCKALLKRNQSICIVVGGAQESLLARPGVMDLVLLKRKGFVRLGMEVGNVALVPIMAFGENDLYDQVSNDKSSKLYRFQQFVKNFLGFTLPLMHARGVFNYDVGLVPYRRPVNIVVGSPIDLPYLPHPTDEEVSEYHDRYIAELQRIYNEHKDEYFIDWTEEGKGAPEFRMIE

For CCCCCCCCCCCCCCCCCC(=O)SCCNC(=O)CCNC(=O)[C@H](O)C(C)(C)COP(=O)(O)OP(=O)(O)OC[C@H]1O[C@@H](n2cnc3c(N)ncnc32)[C@H](O)[C@@H]1OP(=O)(O)O [stearoyl-CoA], the “fluorescent DGAT assay, HPTLC of NBD-TG” value (Dga1pΔ85 [1]; acyl donor, 100 μM NBD-DG, 20 mM MgCl2, Hepes pH 7.6, 0.01% tween 20, 31°C) was “C18:0-CoA was an efficient acyl donor for both enzyme versions” and the “fluorescent DGAT assay, HPTLC of NBD-TG” value (Dga1pΔ19 [2]) was “C18:0-CoA was an efficient acyl donor for both enzyme versions”.
With O=C(O)c1cccnc1 [niacin] the “% decrease of TG production at 1 mM” value (Dga1pΔ19 [3]) was 70% and the “% decrease of TG production at 1 mM” value (Dga1pΔ85 [4]) was 99.5%.
CCCCCCCCCC(=O)O[C@@H](CO)COC(=O)CCCCCCCCCNc1ccc([N+](=O)[O-])c2nonc12 [NBD-DG] was tested, and the “fluorescent DGAT assay, HPTLC of NBD-TG” value (Dga1pΔ85 [1]; acyl acceptor, labelled compound, 100 μM with C18:0-CoA, 20 mM MgCl2, Hepes pH 7.6, 31°C) was “both recombinant enzymes harbored increasing DGAT activities in the presence of various C18:0-CoA concentrations”.
“MBP-Dga1pΔ19 fusion protein (domain or fragment)” showed a stoichiometry N [5] of 2.
“MBP-Dga1pΔ85 construct (domain or fragment)” showed a stoichiometry N [6] of 2.

From PMC5079557, “Expression of Soluble Forms of Yeast Diacylglycerol Acyltransferase 2 That Integrate a Broad Range of Saturated Fatty Acids in Triacylglycerols” (PLoS ONE, 2016)
